Test results from patent US8129197B2, “Cholesterol loaded insect cell membranes as test proteins” (SOLVO Biotechnológial ZRT., priority 2006, dated 2012).
Residue numbers refer to the chain shown, from its start. Read-outs that look alike come from different tables or passages of the source. Each block holds one molecule with its values, some of them ahead of it.

What was measured:
humanBSEP = humanBSEP (Homo sapiens, UniProt O95342)
Method: (§1) Measurement of the vesicular transport activity in case of Bsep: The transport activity measurements were carried out with purified membrane vesicles containing human, rat or mouse Bsep (ABCB11, sPgp) transporter isolated from baculovirus infected Sf9 (Spodoptera frugiperda)cells. The membrane preparations contain 5-16% closed, inside-out oriented, membrane vesicles. The transporter pumps the molecules inside of these vesicles. The vesicles can be separated by rapid filtration of the membrane suspension through a glass filter or through a nitrocellulose membrane (using vacuum).
(§2) The quantitative determination of the transported molecule can be done in several ways, like: HPLC, LC/MS, but also fluorescent or radioactive labeling is also suitable. Tritium labeled substrates were used in the assays and the mode of detection was liquid-scintillation.
(§3) Assay Design and Main Steps for Bsep • Prepare an appropriate concentration of membrane suspension in assay buffer; add the unlabeled and ^3H-labeled substrates to the suspension.

mouseBsep = biological target: T1, mouseBsep (Mus musculus, UniProt Q9QY30)
T1 sequence (Q9QY30 1-1321): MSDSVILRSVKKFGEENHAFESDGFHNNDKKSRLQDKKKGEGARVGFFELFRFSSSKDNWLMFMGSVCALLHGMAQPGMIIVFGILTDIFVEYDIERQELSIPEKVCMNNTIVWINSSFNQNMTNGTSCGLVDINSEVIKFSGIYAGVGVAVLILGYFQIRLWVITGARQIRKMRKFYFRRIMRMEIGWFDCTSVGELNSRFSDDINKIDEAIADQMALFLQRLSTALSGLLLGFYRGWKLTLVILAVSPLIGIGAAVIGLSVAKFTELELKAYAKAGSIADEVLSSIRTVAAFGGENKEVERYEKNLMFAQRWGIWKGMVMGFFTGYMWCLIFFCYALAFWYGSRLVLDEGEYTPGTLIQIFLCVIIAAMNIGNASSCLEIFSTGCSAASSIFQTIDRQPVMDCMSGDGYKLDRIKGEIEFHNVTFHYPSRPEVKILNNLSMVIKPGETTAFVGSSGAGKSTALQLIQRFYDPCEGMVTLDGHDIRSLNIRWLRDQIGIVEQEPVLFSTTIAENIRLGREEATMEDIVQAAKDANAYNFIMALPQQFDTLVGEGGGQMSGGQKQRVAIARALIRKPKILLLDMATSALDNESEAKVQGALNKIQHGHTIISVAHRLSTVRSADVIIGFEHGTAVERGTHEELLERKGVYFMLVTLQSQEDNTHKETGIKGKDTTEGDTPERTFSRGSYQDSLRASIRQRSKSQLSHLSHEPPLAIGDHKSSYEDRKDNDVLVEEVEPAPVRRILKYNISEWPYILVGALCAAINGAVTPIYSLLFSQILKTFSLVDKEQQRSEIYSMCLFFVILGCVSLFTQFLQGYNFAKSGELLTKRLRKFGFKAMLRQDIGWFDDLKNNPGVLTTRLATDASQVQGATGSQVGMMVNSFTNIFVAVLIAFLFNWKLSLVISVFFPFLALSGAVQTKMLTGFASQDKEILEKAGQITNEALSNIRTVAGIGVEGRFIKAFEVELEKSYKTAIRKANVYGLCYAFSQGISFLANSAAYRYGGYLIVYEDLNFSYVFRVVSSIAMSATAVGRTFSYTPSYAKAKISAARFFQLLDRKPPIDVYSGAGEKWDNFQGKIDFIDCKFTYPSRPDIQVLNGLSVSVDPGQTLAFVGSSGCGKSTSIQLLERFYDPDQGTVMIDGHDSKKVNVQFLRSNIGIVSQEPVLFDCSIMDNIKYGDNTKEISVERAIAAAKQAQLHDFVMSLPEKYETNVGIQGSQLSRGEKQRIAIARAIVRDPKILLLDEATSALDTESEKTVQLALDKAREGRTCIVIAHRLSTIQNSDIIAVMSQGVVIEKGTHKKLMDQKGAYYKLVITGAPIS
Method: as §1, §2, §3

ratBsep = ratBsep (Rattus norvegicus, UniProt O70127)
ratBsep, sequence (O70127 whole entry): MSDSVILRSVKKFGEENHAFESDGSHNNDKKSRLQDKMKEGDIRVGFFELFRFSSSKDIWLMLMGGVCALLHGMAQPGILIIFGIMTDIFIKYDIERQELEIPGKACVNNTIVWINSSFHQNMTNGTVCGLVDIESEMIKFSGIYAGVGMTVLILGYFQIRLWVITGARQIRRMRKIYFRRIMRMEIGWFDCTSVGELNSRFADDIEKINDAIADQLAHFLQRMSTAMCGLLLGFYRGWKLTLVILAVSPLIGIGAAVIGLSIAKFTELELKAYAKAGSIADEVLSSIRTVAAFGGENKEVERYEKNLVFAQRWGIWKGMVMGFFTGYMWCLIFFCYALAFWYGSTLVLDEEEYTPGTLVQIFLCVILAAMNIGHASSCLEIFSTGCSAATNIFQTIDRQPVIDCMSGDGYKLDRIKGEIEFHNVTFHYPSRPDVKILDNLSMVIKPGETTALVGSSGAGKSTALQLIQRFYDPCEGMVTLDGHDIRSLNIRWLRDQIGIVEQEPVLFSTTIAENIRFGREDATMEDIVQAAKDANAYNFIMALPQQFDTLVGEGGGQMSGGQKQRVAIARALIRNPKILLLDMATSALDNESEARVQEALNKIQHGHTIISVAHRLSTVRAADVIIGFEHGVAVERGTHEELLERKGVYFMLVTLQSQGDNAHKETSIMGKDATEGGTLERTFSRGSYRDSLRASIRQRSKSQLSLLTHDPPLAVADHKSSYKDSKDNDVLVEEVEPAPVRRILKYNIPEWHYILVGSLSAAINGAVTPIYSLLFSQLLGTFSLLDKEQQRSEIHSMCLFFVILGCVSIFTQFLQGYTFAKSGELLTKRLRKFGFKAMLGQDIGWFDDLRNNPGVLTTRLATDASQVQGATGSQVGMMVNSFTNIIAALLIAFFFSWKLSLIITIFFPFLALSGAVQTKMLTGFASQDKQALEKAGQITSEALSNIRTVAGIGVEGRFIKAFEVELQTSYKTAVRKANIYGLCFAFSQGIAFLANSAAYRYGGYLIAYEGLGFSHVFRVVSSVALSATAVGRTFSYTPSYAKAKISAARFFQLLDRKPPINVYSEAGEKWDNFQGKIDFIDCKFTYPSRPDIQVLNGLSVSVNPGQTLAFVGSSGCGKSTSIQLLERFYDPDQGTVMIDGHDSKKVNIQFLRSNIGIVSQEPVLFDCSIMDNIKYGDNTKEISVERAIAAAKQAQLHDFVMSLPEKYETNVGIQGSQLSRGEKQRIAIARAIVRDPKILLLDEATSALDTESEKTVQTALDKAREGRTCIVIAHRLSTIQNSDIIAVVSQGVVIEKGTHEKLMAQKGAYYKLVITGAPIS
Method: as §1, §2, §3

wild-type ABCG2 [1] = biological target: T2, wild-type ABCG2 (Homo sapiens, UniProt Q9UNQ0); assay: Vesicular transport assay, inside-out ABCG2-Sf9 membrane vesicles
T2 sequence (Q9UNQ0 1-655): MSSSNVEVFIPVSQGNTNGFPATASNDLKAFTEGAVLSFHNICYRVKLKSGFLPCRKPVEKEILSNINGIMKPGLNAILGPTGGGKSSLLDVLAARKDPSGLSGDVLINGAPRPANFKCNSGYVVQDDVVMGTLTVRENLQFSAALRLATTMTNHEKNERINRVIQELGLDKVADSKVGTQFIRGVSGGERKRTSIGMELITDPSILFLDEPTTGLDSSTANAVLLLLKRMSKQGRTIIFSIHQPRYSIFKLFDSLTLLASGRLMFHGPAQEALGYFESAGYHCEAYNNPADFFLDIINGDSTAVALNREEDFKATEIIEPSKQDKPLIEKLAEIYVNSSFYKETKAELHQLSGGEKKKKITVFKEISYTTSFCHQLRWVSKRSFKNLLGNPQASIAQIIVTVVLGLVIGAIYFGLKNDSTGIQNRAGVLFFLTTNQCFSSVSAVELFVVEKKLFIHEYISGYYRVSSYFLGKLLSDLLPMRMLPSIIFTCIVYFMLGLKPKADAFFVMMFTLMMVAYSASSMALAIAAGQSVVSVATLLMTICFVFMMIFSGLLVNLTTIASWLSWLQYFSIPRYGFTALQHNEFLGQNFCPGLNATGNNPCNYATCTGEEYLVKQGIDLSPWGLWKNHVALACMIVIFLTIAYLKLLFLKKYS
Method: as §1, with “activity:” for “activity in case of Bsep:”, “ABCG2” for “human, rat”, “or” for “or mouse”, “Bsep” for “Bsep (ABCB11, sPgp) transporter”, “frugiperda) cells or mammalian (ABCG2-M) cells.” for “frugiperda)cells.”, “rapidly filtrating” for “rapid filtration”
as §2
Measurement of the vesicular transport activity in case of ABCG2: More closely, as examples, inside-out membrane vesicles were incubated in the presence or absence of 4 mM ATP. […] The transport was stopped by addition of cold wash buffer (40 mM MOPS-Tris (pH 7.0), 70 mM KCl).
The transport was stopped by addition of cold wash buffer (10 mM Tris-HCl, pH 7.4; 250 mM sucrose and 100 mM NaCl).
For estrone-3-sulfate vesicular transport 10 mM Tris-HCl, (pH 7.4), 250 mM sucrose, and 10 mM MgCl2 containing buffer were incubated at 32° C. for 1 min. The transport was stopped by addition of cold wash buffer (10 mM Tris-HCl, pH 7.4; 250 mM sucrose and 100 mM NaCl).
The incubation mix was then rapidly filtered through class B glass fiber filters (pore size, 0.1 μm). Filters were washed with 5×200 μl of ice cold wash buffer and radioactivity retained on the filter was measured by liquid scintillation counting. ATP-dependent transport was calculated by subtracting the values obtained in the absence of ATP from those in the presence of ATP.
Exemplary Assay Design and Main Steps for ABCG2 • Prepare an appropriate concentration of membrane suspension in assay buffer; add the unlabeled and ^3H-labeled substrates to the suspension.

wild-type ABCG2 [2] = biological target: T2, wild-type ABCG2; conditions: 2 min
Method: Following UV-irradiation, gel-electrophoresis and electroblotting, the labeled bands were visualized by Phospho-Imager.
Isolated Sf9 cell membranes, containing the same amount of wild-type ABCG2 protein were loaded with cholesterol by preincubation with 4 mM C-CD, as described in the Methods. Cholesterol-loaded membrane vesicles contained 50 μg cholesterol/mg membrane protein, while the control membranes contained 8 μg cholesterol/mg membrane protein.

R482G-ABCG2 = biological target: T3, R482G-ABCG2 (Homo sapiens, UniProt Q9UNQ0, R482G); assay: Vesicular MTX transport, Sf9 vesicles with R482G variant; type: biochemical; conditions: control and cholesterol-loaded Sf9 membrane vesicles
T3 construct: made in house; host or cells: Sf9 cells infected with recombinant baculovirus
T3 sequence (Q9UNQ0 1-655 R482G): T2 sequence (Q9UNQ0 1-655) with R482G
Method: MTX uptake was measured at 100 μM MTX concentration for 5 min at 37° C. in membrane vesicles containing the human wild-type ABCG2 (WT), or R482G-ABCG2 (G) transporter.
MTX and ESG uptake was measured for 5 min at 37° C. at 5 mM ATP in membrane vesicles containing the human wild-type ABCG2 (WT), or R482G-ABCG2 (G) transporter. […] The mean values±SD are presented.
Vesicular transport studies: In these experiments we carried out direct, ATP-dependent substrate transport measurements by using isolated inside-out membrane vesicles of ABCG2-expressing Sf9 cells.

ABCG2-R482T = biological target: T4, ABCG2-R482T (Homo sapiens, UniProt Q9UNQ0, R482T); assay: Vesicular MTX transport, Sf9 vesicles with R482T variant; type: biochemical; conditions: irrespective of the membrane cholesterol content
T4 construct: made in house; host or cells: Sf9 cells infected with recombinant baculovirus
T4 sequence (Q9UNQ0 1-655 R482T): T2 sequence (Q9UNQ0 1-655) with R482T

humanBSEP, sequence (O95342 whole entry): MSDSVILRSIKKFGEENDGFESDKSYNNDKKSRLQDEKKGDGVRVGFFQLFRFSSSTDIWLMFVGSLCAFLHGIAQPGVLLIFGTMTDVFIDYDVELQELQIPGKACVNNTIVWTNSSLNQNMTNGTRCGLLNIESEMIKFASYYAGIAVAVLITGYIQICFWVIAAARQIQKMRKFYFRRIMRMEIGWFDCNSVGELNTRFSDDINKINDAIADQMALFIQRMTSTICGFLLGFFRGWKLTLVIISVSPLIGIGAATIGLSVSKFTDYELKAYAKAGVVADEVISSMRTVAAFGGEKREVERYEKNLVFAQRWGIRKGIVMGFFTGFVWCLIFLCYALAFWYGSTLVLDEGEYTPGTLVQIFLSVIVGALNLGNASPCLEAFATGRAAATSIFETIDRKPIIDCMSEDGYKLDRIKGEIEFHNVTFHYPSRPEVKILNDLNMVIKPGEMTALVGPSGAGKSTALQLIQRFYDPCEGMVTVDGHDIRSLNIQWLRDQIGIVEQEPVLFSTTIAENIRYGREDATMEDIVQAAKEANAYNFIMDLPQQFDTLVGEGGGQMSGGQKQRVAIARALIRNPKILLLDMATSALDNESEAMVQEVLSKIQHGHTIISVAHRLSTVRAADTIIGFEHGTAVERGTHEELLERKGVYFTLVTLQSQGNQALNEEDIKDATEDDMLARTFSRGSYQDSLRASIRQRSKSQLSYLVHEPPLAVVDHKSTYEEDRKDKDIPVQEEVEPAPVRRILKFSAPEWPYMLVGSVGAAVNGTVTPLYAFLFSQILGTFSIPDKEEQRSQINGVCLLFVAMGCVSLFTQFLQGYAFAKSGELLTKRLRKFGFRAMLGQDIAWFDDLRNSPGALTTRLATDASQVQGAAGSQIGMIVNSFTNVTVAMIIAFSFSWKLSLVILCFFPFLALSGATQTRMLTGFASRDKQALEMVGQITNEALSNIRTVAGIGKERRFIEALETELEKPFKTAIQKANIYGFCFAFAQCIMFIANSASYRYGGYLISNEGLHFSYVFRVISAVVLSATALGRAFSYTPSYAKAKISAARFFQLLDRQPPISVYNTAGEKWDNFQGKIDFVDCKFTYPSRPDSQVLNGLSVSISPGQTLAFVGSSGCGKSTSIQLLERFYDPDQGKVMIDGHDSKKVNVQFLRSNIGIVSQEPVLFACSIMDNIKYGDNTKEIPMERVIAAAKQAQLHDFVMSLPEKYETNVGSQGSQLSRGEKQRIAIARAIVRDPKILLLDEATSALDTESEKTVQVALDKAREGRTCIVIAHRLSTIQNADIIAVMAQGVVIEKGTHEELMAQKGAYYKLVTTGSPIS

Compound: C[C@H](CCC(=O)NCCS(=O)(=O)O)[C@H]1CC[C@H]2[C@@H]3[C@H](O)C[C@@H]4C[C@H](O)CC[C@]4(C)[C@H]3C[C@H](O)[C@]12C [TC, Taurocholic acid]
VMAX of taurocholate transport (humanBSEP; humanBSEP-Sf9 + Chol): 323 pmol TC/mg prot/min
VMAX of taurocholate transport (humanBSEP; humanBSEP-Sf9 CTRL): 169.4 pmol TC/mg prot/min
VMAX of taurocholate transport (mouseBsep; mouseBsep-Sf9 + Chol): 1843 pmol TC/mg prot/min
VMAX of taurocholate transport (mouseBsep; mouseBsep-Sf9 CTRL): 1199 pmol TC/mg prot/min
VMAX of taurocholate transport (ratBsep; ratBsep-Sf9 + Chol): 121.3 pmol TC/mg prot/min
VMAX of taurocholate transport (ratBsep; ratBsep-Sf9 CTRL): 14.54 pmol TC/mg prot/min

Increase of maximum transport rate of ABCG2 by increasing membrane cholesterol levels (wild-type ABCG2 [1]; human): up to 20 fold
mean relative value of ABCG2 labeling (basic level of nucleotide trapping) after cholesterol loading (wild-type ABCG2 [2]): 105%
Compound: CC(C)CCC[C@@H](C)[C@H]1CC[C@H]2[C@@H]3CC=C4C[C@@H](O)CC[C@]4(C)[C@H]3CC[C@]12C [cholesterol]

Increase of Vmax of vesicular transport by cholesterol loading (wild-type ABCG2 [1]): six-fold
MTX transport (in words) (R482G-ABCG2): very low
MTX transport rate (ABCG2-R482T): below 50 pmoles/mg membrane protein/min
Compound: CN(Cc1cnc2nc(N)nc(N)c2n1)c1ccc(C(=O)N[C@@H](CCC(=O)O)C(=O)O)cc1 [methotrexate]
